The test system of the experiment is human multiple myeloma cells. Put plainly: Cell proliferation (Cell TiterGlo) synergy of HDAC inhibitor with bortezomib. Type of experiment: cell-based. Conditions: two cultures of human multiple myeloma cells, bortezomib 0, 2.5 nM, 5.0 nM. As to the method: FIG. 7. […] Synergistic effects on cell proliferation were determined by varying concentrations of each HDAC inhibitor in the presence of varied concentrations of the proteasome inhibitor, bortezomib. Two cultures of human multiple myeloma cells were used for this study. Data presented are the IC50 data for the HDAC inhibitor studied (first column) in the presence of increasing concentrations of bortezomib (0, 2.5 nM, or 5.0 nM). The measurement of cell proliferation used is the Cell TiterGlo assay (Promega), which uses bioluminescence to report on ATP content in cultured cells.

In the case of `O=C(CCCCCCC(=O)Nc1ccc([C@H]2O[C@@H](CSc3nc(-c4ccccc4)c(-c4ccccc4)o3)C[C@@H](c3ccc(CO)cc3)O2)cc1)NO` [tubacin, reference compound], the “Synergy with bortezomib on cell proliferation” value is listed as “most pronounced synergy”.

The values above are taken from patent publication US9434686B2, “Deacetylase inhibitors and uses thereof” (President and Fellows of Harvard College, priority 2008, dated 2016).
